Test results published in patent US8785460B2, “Tricyclic compounds and use thereof” (Takeda Pharmaceutical Company Limited, priority 2008, dated 2014).

Key:
[1] = target: T1, human CRF1 receptor (Homo sapiens, UniProt P34998); test: Measurement of CRF Binding Inhibitory Rate (receptor binding experiment with 125I-CRF); conditions: human CRF1 receptor expressing CHO cellular membrane fraction, 50 pM 125I-CRF, room temperature 1.5 hr, 0.05 nM to 10 μM of compound; read-out: IC50 values (CRF binding inhibition)
T1 construct: expressed in transfected cells; host or cells: CHO cells (membrane fraction)
T1 sequence (P34998 24-415): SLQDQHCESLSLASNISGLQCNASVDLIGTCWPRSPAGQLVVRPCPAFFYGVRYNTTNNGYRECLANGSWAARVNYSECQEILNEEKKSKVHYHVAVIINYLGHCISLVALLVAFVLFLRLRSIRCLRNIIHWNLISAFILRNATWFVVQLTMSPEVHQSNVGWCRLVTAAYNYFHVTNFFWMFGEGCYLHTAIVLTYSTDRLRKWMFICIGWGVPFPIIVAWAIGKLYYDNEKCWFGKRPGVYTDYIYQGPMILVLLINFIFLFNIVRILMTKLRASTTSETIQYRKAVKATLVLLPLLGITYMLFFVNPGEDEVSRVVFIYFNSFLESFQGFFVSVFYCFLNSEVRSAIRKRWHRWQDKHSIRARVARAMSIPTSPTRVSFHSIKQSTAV

Row | SMILES | melting point | IC50 [1]
1 | CCC(NC(=O)C(F)F)c1ccc(Cl)c2nc3n(c12)CCCN3c1c(Cl)cc(Cl)cc1Cl (stereo not drawn) [Example 409, N-{1-[9-Chloro-1-(2,4,6-trichlorophenyl)-1,2,3,4-tetrahydropyrimido[1,2-a]benzimidazol-6-yl]propyl}-2,2-difluoroacetamide] | 211 to 213 °C | < 1000 nM
2 | CCN(CC)c1cccc2nc3n(c12)CCCN3c1cnc(OC)nc1OC [Example 79, 1-(2,4-Dimethoxypyrimidin-5-yl)-N,N-diethyl-1,2,3,4-tetrahydropyrimido[1,2-a]benzimidazol-6-amine] | 170 to 171 °C | < 1000 nM
3 | CCC(CC)c1ccc(Cl)c2nc3n(c12)CCCCN3c1cnc(C(C)=O)cc1C [Example 60, 1-{5-[10-Chloro-7-(1-ethylpropyl)-2,3,4,5-tetrahydro-1H-[1,3]diazepino[1,2-a]benzimidazol-1-yl]-4-methylpyridin-2-yl}ethanone] | 144 to 145 °C | < 1000 nM
4 | CCOC(c1ccc(Cl)c2nc3n(c12)CCCN3c1ccc(Cl)cc1Cl)C1CC1 (stereo not drawn) [Example 483, 9-Chloro-6-[cyclopropyl(ethoxy)methyl]-1-(2,4-dichlorophenyl)-1,2,3,4-tetrahydropyrimido[1,2-a]benzimidazole] | 138 to 140 °C | < 1000 nM
5 | CCC(OC(C)=O)c1ccc(Cl)c2nc3n(c12)CCCN3c1ccc(N(C)C)nc1C (stereo not drawn) [Example 166, 1-{9-Chloro-1-[6-(dimethylamino)-2-methylpyridin-3-yl]-1,2,3,4-tetrahydropyrimido[1,2-a]benzimidazol-6-yl}propyl acetate] | 165 to 166 °C | < 1000 nM
6 | CCC(OC(C)=O)c1ccc(Cl)c2nc3n(c12)CCCN3c1ccc(OC)nc1C (racemic) [Example 265, 1-[9-Chloro-1-(6-methoxy-2-methylpyridin-3-yl)-1,2,3,4-tetrahydropyrimido[1,2-a]benzimidazol-6-yl]propyl acetate] | 157 to 159 °C | < 1000 nM
7 | CCOC(CC)c1ccc(Cl)c2nc3n(c12)CCCN3c1ccc(Cl)cc1Cl (stereo not drawn) [Example 116, 9-Chloro-1-(2,4-dichlorophenyl)-6-(1-ethoxypropyl)-1,2,3,4-tetrahydropyrimido[1,2-a]benzimidazole] | 108 to 110 °C | < 1000 nM
8 | COc1ccc(N2CCCn3c2nc2c(Cl)ccc(C(OCC(F)(F)F)C4CC4)c23)c(C)n1 (stereo not drawn) [Example 277, 9-Chloro-6-[cyclopropyl (2,2,2-trifluoroethoxy)methyl]1-(6-methoxy-2-methylpyridin-3-yl)-1,2,3,4-tetrahydropyrimido[1,2-a]benzimidazole] | 158 to 160 °C | < 1000 nM
9 | CCC(CC)c1ccc(Cl)c2nc3n(c12)CCN3c1ccc(Cl)cc1Br [Example 5, 1-(2-Bromo-4-chlorophenyl)-8-chloro-5-(1-ethylpropyl)-2,3-dihydro-1H-imidazo[1,2-a]benzimidazole] | 169 to 171 °C | < 1000 nM
10 | CCC(CC)c1ccc(Cl)c2nc3n(c12)CCCCN3c1ncc([N+](=O)[O-])cc1C [Example 64, 10-Chloro-7-(1-ethylpropyl)-1-(3-methyl-5-nitropyridin-2-yl)-2,3,4,5-tetrahydro-1H-[1,3]diazepino[1,2-a]benzimidazole] | 204 to 205 °C | < 1000 nM
11 | CCC(O)(CC)c1ccc(Cl)c2nc3n(c12)CCCN3c1ccc(Cl)cc1C(F)(F)F [Example 128, 3-{9-Chloro-1-[4-chloro-2-(trifluoromethyl)phenyl]-1,2,3,4-tetrahydropyrimido[1,2-a]benzimidazol-6-yl}pentan-3-ol] | 178 to 180 °C | < 1000 nM
12 | CCC(OC)c1cccc2nc3n(c12)CCCN3c1ccc(Cl)cc1Cl (stereo not drawn) [Example 93, 1-(2,4-Dichlorophenyl)-6-(1-methoxypropyl)-1,2,3,4-tetrahydropyrimido[1,2-a]benzimidazole] | 151 to 153 °C | < 1000 nM
